According to ChEMBL document CHEMBL2086250, “Long-acting peptidomimetics based DPP-IV inhibitors” (Bioorg Med Chem Lett, 2012):
Activity calls are given as the source filed them. The rule behind the calls is not given here.

Experiments:
[1] = Tmax in C57BL/6J mouse at 20 mg/kg, po administered as single dose; format: ADME, organism-based; parameters: dose 20 mg/kg, route oral; conditions: in vivo
[2] = Half life in C57BL/6J mouse at 20 mg/kg, po administered as single dose; format: ADME, organism-based; parameters: dose 20 mg/kg, route oral; conditions: in vivo
[3] = Cmax in C57BL/6J mouse at 20 mg/kg, po administered as single dose; format: ADME, organism-based; parameters: dose 20 mg/kg, route oral; conditions: in vivo
Mus musculus [4] = test: Antidiabetic activity against C57BL/6J mouse assessed as reduction serum glucose AUC levels at 20 mg/kg, po measured up to 60 mins by IPGTT method; format: functional, organism-based; parameters: dose 20 mg/kg
[5] = Elimination rate constant in C57BL/6J mouse at 20 mg/kg administered as single dose; format: ADME, organism-based; parameters: dose 20 mg/kg; conditions: in vivo
Mus musculus [6] = test: Antidiabetic activity against C57BL/6J mouse assessed as reduction serum glucose AUC levels at 20 mg/kg, po measured up to 120 mins by IPGTT method; format: functional, organism-based; parameters: dose 20 mg/kg
Mus musculus [7] = test: Antidiabetic activity against C57BL/6J mouse assessed as reduction serum glucose AUC levels at 20 mg/kg, po measured up to 240 mins by IPGTT method; format: functional, organism-based; parameters: dose 20 mg/kg
[8] = Oral bioavailability in C57BL/6J mouse at 20 mg/kg administered as single dose; format: ADME, organism-based; conditions: in vivo
Mus musculus [9] = test: Antidiabetic activity against C57BL/6J mouse assessed as reduction serum glucose AUC levels at 20 mg/kg, po measured up to 30 mins by IPGTT method; format: functional, organism-based; parameters: dose 20 mg/kg
[10] = AUC (0 to alpha) in C57BL/6J mouse at 20 mg/kg, po administered as single dose; format: ADME, organism-based; parameters: dose 20 mg/kg, route oral; conditions: plasma

Row | Compound | Tmax [1] [min] | half-life [2] [min] | Cmax [3] [ng/mL] | Activity (Mus musculus [4]) | k el [5] [s⁻¹] | Activity (Mus musculus [6]) | Activity (Mus musculus [7]) | bioavailability [8] [%] | Activity (Mus musculus [9]) | AUC [10] [ng·h/mL]
1 | N#Cc1ccc(C(=O)NCCCC(=O)N2CCC[C@H]2C#N)cc1 | 17.4 | 479 | 7100 | Active | 3.06e-05 | Active | Active | 72.5 | Active | 14300
2 | N#Cc1ccc(NCCNCC(=O)N2CCC[C@H]2C#N)nc1 | 19.2 | 52.8 | 6200 | Active |  | inactive | inactive | 65 | Active | 6490
3 | N#C[C@@H]1CCCN1C(=O)CCCNC(=O)c1ccc(C(F)(F)F)cc1 | 16.8 | 59.4 | 5900 | Active | 0.000228 | inactive | inactive | 63.1 | Active | 6890
